The nature of assay [1]: blockers of bursicon-stimulated LGR2 cAMP reporter – cell-based, HEK293, CRE-luciferase reporter, cherry pick, set 2, dose response (AID 743343).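 Note: transfected cells were stimulated with diluted bursicon conditioned medium after compound addition.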 In kind it is functional. (In a reporter assay the amount or activity of a reporter protein is the signal.)
Assay [2] can be described thus: toxicity toward HepG2 liver cells – cell-based, plate reader, cherry-pick, antagonist series, cytotoxicity control, dose response (AID 743416). Type of assay: functional.
A short description of assay [3]: A549 cell cytotoxicity, dose response, cytotoxicity control, plate reader, cherry-pick, antagonist series (AID 743412). Type of assay: functional, cell-based.
A short description of assay [4]: blockade of melanocortin 4 receptor signaling – cell-based, plate reader, cherry pick, counter-screen for LGR2 antagonist project, dose response (AID 743444).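 Note: transfected HEK 293 cells stimulated with alpha-MSH peptide; potency of inhibitors of the alpha-MSH evoked signal.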 In kind it is functional. (In general: A counterscreen serves to expose hits that act by an unwanted route or on another target.)
The nature of assay [5]: viability loss in HEK293 cells – cell-based, plate reader, cherry-picked samples, cytotoxicity control, dose response (AID 743446). Type of assay: functional.
Assay [6] has as its target T1, Protein skinhead-1 (Caenorhabditis elegans, UniProt P34707).
T1 sequence (P34707 whole entry): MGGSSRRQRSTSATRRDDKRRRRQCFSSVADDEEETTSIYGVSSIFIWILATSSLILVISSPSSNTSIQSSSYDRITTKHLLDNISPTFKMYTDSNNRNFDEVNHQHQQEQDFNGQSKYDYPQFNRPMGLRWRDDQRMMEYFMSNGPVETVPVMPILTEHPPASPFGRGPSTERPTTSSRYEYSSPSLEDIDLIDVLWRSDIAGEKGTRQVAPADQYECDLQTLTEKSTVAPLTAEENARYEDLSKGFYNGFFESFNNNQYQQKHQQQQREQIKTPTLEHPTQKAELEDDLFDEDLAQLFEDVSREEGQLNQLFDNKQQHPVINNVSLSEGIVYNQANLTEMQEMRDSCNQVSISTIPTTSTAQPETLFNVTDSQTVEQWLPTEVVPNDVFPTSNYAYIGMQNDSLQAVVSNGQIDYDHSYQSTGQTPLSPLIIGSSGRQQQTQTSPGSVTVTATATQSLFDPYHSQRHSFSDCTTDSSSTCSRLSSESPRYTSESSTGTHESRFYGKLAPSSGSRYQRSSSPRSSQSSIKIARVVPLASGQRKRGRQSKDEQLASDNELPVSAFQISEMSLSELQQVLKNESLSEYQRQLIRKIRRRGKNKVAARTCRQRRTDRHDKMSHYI
In kind it is functional.

Assay [7] has as its target Steroidogenic factor 1 (Homo sapiens, UniProt Q13285). Briefly: Counterscreen for inverse agonists of the liver receptor homolog-1 (LRH-1; NR5A2): Luminescence-based cell-based high throughput dose response assay to identify inverse agonists of the Steroidogenic Factor 1 Nuclear Receptor (SF1; NR5A1). In kind it is functional.
In assay [8] the target is Nuclear receptor subfamily 5 group A member 2 (Homo sapiens, UniProt O00482). In kind it is functional, cell-based.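 Note: HEK293T cells transfected with LRH-1 and a StAR promoter luciferase reporter; potency for inhibitors that lower LRH-1 driven reporter light.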
A short description of assay [9]: nonselective StAR promoter luciferase inhibitors – cell-based, luminescence, luciferase reporter, counter-screen for LRH-1 inverse agonist project, dose response (AID 651969). Type of assay: functional.
The nature of assay [10]: OVCAR8 cell viability loss – plate reader, dry powder samples, PAX8 project, dose response (AID 743197). In kind it is functional, cell-based. Particulars: OVCAR-8.
Assay [11] concerns the target Paired box protein Pax-8 (Homo sapiens, UniProt Q06710). Briefly: PAX8 transcriptional activity inhibition in RMG-I – RMG-I cells, luciferase, cherry-pick, dose response (AID 687027).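 Note: luciferase reporter driven by Pax8 target thyroperoxidase promoter measured by SteadyGlo luminescence.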 In kind it is functional, cell-based.
Assay [12] addresses T2, Probable nicotinate-nucleotide adenylyltransferase (Staphylococcus aureus (strain N315), UniProt P65502). Type of assay: functional, Staphylococcus aureus subsp. aureus N315. Particulars: read-out: IC50_Mean.
The target in assay [13] is T2, Probable nicotinate-nucleotide adenylyltransferase. Type of assay: functional, Staphylococcus aureus subsp. aureus N315.
Assay [14] in a line: general mammalian cell viability loss – inhibitor set, cherry-pick, set 2, cytotoxicity control for miR-122 modulator project, dose response (AID 720697). In kind it is functional, cell-based.
Assay [15] concerns the target T3, Histone-lysine N-methyltransferase NSD2 (Homo sapiens, UniProt O96028).
T3 sequence (O96028 whole entry): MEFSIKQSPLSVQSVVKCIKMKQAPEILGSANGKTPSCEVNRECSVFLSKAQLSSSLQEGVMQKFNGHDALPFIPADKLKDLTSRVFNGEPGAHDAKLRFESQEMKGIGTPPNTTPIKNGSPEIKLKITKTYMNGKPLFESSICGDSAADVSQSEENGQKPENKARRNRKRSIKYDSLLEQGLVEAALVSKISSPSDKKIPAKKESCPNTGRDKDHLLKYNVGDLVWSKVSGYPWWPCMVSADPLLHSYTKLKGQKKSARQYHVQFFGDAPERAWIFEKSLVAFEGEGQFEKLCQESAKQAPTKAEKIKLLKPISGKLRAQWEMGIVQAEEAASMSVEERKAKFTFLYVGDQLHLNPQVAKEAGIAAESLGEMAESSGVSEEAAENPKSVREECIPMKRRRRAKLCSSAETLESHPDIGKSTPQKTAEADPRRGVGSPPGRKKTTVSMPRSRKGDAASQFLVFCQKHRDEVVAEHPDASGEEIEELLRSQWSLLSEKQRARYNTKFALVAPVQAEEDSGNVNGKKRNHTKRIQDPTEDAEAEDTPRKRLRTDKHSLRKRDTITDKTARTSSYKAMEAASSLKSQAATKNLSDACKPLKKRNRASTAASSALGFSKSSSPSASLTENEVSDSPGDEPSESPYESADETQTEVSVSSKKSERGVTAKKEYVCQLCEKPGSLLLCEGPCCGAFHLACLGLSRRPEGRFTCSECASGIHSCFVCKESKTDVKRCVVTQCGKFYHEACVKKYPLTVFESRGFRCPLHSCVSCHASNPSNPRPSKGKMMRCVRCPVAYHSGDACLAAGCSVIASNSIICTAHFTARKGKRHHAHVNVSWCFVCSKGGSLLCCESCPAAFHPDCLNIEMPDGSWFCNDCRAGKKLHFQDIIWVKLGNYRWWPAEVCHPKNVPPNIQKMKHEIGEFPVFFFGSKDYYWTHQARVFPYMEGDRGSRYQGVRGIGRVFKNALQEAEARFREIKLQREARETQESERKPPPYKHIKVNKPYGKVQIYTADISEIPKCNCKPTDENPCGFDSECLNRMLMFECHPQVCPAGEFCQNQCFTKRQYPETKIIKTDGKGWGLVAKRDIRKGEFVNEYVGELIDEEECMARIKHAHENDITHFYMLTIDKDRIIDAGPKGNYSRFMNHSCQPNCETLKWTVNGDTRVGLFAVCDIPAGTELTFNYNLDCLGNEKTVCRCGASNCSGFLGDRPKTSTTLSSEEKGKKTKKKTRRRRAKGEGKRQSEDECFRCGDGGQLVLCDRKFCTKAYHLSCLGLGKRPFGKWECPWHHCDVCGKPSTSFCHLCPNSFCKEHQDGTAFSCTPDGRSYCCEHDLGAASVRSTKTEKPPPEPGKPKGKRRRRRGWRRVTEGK
In kind it is biochemical.

A short description of assay [16]: viability of HCT116 lacking mutant beta-catenin – cell-based, human colon tumor, dose response (AID 1045).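 Note: HCT116 colon tumor cells with beta catenin knocked out; cells exposed to compound for 60 hours.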 Type of assay: functional.
Assay [17] can be described thus: viability of PTEN-deleted HCT116 cells – cell-based, HCT116 PTEN knockout, dose response (AID 1047).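 Note: HCT116 colon tumor cells with PTEN knocked out; cells exposed to compound for 60 hours before readout; potency for loss of cell viability measured by luminescence.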 In kind it is functional.
Assay [18] can be described thus: Luminescence Cell-Based Dose Retest to Confirm Inhibitors of Cancer Stem Cells. [Related pubchem assays (depositor defined):AID2717, AID2721]. In kind it is functional. The note with it: Homo sapiens.
Assay [19] can be described thus: OVCAR-3 cell viability loss – plate reader, dry powder samples, PAX8 inhibitor project, dose response (AID 743044). In kind it is functional, cell-based.
A short description of assay [20]: intracellular Trypanosoma cruzi inhibitors in host cells – cell-based, plate reader, cherry-pick samples, set 3, dose response (AID 651818).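 Note: compounds incubated with infected cells for about four days.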 Type of assay: functional.

Activity calls are given as the source filed them.
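Throughout, for IC50 Mean: confirmatory dose-response retesting of NadD inhibitor hits first found in an ultra-high-throughput screen.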

Chain of Nuclear receptor subfamily 5 group A member 2 (O00482 whole entry): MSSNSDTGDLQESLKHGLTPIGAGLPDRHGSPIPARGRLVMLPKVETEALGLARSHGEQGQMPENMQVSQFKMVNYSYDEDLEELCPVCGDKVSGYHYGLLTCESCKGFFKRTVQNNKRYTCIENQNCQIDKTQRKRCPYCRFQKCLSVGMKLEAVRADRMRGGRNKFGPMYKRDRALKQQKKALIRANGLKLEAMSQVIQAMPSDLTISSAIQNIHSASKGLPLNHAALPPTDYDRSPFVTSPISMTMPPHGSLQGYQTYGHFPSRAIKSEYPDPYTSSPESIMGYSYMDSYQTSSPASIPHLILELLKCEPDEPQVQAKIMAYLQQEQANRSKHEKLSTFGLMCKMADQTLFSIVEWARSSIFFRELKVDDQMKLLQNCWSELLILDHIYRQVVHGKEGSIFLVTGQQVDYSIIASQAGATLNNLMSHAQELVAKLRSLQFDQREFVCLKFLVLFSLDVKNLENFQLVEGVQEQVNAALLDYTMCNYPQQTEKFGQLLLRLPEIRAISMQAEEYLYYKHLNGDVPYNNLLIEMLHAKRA
Chain of Steroidogenic factor 1 (Q13285 whole entry): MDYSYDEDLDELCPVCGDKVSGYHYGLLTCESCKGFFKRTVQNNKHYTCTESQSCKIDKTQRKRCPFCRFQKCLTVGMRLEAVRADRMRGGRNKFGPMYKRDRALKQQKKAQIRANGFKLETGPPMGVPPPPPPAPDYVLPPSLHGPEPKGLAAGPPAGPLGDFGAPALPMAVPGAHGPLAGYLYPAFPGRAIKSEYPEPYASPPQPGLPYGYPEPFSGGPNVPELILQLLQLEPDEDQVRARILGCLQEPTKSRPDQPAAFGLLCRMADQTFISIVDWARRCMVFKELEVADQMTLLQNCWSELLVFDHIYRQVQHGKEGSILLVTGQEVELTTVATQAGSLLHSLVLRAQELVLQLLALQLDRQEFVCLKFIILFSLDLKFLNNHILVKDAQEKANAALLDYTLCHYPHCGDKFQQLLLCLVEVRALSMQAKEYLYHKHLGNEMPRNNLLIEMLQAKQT
T2 sequence (P65502 whole entry): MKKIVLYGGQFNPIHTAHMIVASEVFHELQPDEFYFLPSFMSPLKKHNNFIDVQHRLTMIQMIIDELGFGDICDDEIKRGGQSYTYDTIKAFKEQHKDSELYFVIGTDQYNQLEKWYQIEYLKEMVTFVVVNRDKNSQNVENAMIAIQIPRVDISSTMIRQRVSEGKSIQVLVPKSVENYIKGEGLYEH
Chain of Paired box protein Pax-8 (Q06710 whole entry): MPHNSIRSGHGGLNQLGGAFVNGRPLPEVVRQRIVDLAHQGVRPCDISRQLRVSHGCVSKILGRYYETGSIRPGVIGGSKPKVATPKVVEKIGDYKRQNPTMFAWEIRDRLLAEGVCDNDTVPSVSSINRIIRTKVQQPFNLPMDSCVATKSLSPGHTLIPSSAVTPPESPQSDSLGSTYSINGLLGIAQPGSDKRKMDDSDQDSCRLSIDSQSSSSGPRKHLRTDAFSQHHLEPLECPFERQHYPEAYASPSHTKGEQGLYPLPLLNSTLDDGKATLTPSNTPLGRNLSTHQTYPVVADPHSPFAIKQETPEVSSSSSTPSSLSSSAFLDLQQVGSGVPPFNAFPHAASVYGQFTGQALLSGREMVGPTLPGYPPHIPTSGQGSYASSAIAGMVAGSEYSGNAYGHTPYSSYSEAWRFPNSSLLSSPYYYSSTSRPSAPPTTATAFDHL

Broadly, the AC50 is the concentration giving half of the maximal activity seen. On to `Cc1cccc(C)c1-n1nnnc1C(CCc1ccccc1)N1CCC(n2c(O)nc3ccccc32)CC1` (centres undefined), for which the AC50 was 9.92 µM (active) in [1]; 2.71 µM (active) in assay [2]; 16.6 µM (active) in assay [3]; 8.26 µM (active) in [4]; 6.12 µM (active) in [5].
For `CN(C)CC(O)c1ccc(C=Cc2ccc(Cl)cc2)cc1` (centres undefined), the AC50 in assay [1] was 14.6 µM (active); in assay [2] it was 8.24 µM (active); in [3], 8.82 µM (active); in [4] it was 12.7 µM (active); in assay [5], 14.3 µM (active). For the same molecule, the IC50 in [6] is 58.1 µM (inactive).
As to `CCOc1ccc(Cc2nnc(SCC(=O)Nc3ccc(C(C)=O)cc3)nc2O)cc1`, the values for the IC50 in assay [7], in [8] and in assay [9] were 5.1 µM (active), 13.5 µM (inactive) and 35.9 µM (inactive), respectively.
For the molecule `C[C@H](CO)N1C[C@H](C)[C@@H](CN(C)Cc2ccc(Cl)c(Cl)c2)Oc2ccc(NC(=O)Nc3ccc(F)cc3)cc2CC1=O`, the values for the AC50 in [10] and in assay [11] were 54.4 µM (active) and 13.2 µM (active), respectively.
Turning to `CCOc1ccc(CCNC(=O)CN2C(=O)NC3(CCc4ccccc43)C2=O)cc1OCC` (centres undefined), the IC50 is 4.33 µM (active) in assay [7], 16.7 µM (inactive) in assay [8] and 35.9 µM (inactive) in assay [9].
`Cc1ccc(-n2nc3c(c2NC(=O)c2ccc(Br)o2)CSC3)c(C)c1`: the figures for the IC50 in [12] and in assay [13] were 8.03 µM (active) and 2.11 µM (active), respectively.
Consider `C[C@@H]1CN([C@H](C)CO)S(=O)(=O)c2ccc(-c3ccc(C(=O)N(C)C)cc3)cc2O[C@@H]1CN(C)C(=O)C1CCC1`, for which the AC50 in [14] is 0.493 µM (active).
Consider `O=C(Nc1ccccn1)c1ccc2c(=O)n3c(nc2c1)CCCCC3`, for which the AC50 in [15] was 7.7 µM (active).
One may read the EC50 as the concentration at which the effect is half-maximal. As for `NS(=O)(=O)c1ccc(NC(=O)COC(=O)c2c3c(nc4ccccc24)/C(=C\c2ccc4c(c2)OCO4)CCC3)cc1`, the IC50 is 21.1 µM (active) in assay [12] and 11.9 µM (active) in [13]. In addition, the values for the EC50 in [16] and in assay [17] were 18.3 µM (active) and 17.5 µM (active), respectively. Besides, the AC50 in assay [18] was 3.72 µM (active).
As to `CN(C[C@H]1N[C@@H](CO)[C@@H]1c1ccc(C2=CCCC2)cc1)C(=O)c1ccccn1`, in [14], the AC50 was 2.46 µM (active).
`Cc1ccc(C)c(NC(=O)CSc2nnc(-c3[nH]nc4ccccc34)o2)c1`: the IC50 is 5.07 µM (active) in assay [7], 53.5 µM (inactive) in assay [8] and 35.9 µM (inactive) in assay [9].
As to `C[C@H]1CN([C@@H](C)CO)C(=O)Cc2cc(NC(=O)NC3CCCCC3)ccc2O[C@H]1CN(C)Cc1ccc(-c2ccccc2)cc1`, the AC50 in assay [10] is > 70 µM (inactive); in [19], 54.3 µM (active); in assay [11], 5.8 µM (active); in assay [20], 2.67 µM (active).
As to `COc1ccc(CCNC(=O)CN2C(=O)NC3(CCCCC3)C2=O)cc1`, the IC50 in assay [7] was 1.74 µM (active); in assay [8] it was 16.5 µM (inactive); in assay [9] it was 35.9 µM (inactive).

Values taken from ChEMBL document CHEMBL1201862, “PubChem BioAssay data set” (2004).
